Earlier results on five molecules are cited in patent publication US20140171466A1, “PAIN MANAGEMENT IN SICKLE CELL ANEMIA” (priority 2012, published 2014).

Each structure is given as a SMILES string. Entries after “also recorded” stand apart in the source; their conditions may differ. Read-outs that look alike come from different tables or passages of the source.

For one data set, the system named is mice. To be noted: systemically administered.
The subject of a further data set is nonhuman primates. Particulars: systemic administration.
The conditions of data set [1]: compound on its own.
For data set [2] the following is noted: in vivo.

`O=C1NCN(c2ccccc2)C12CCN(C1CCC3CCCc4cccc1c43)CC2` (stereo in doubt) [Compound 7, ((1 S,3aS)-8-(2,3,3a,4,5,6-hexahydro-1H-phenalen-1-yl)-1-phenyl-1,3,8-triaza-spiro[4.5]decan-4-one)]: in the data set on mice, the “morphine conditioned place preference (CPP)” value is “block morphine conditioned place preference (CPP)”. In the data set with nonhuman primates, the spinal anti-nociceptive action entry was “spinal anti-nociceptive action of NOP agonists has been confirmed”.
Regarding `CCCCCCC(C)(C)c1ccc([C@@H]2C[C@H](O)CC[C@H]2CCCO)c(O)c1` [CP 55,940], the hyperalgesia result in the data set with BERK sickle mice (low dose 0.3 mg/kg) is “attenuated hyperalgesia”. Besides, the “deep hyperalgesia incited by H/R” value with BERK mice is “ameliorated”.
With `O=C1Cc2ccccc2N1C1CCN(C2CCCCCCC2)CC1` [Compound 3, 1-(1-cyclooctylpiperidin-4-yl)-indolin-2-one], the “reward in the CPP paradigm” value in data set [1] is “not rewarding on its own”.
As for `CC1(N2CCC(n3c([C@@H]4CCCNC4)nc4ccccc43)CC2)CCCCCCC1` [Compound 10, 1-[1-(1-methylcyclooctyl)-4-piperidinyl]-2-[(3R)-3-piperidinyl]-1H-benzimidazole], in data set [2], the anxiolytic effects entry is “exhibits anxiolytic effects” and the “effect on memory or locomotion” value was “no effect on memory or locomotion”.
With `CN1CC[C@]23c4c5ccc(O)c4O[C@H]2[C@@H](O)C=C[C@H]3[C@H]1C5` [morphine], in the data set on BERK sickle mice (high dose 20 mg/kg, 20 mg/kg), the hyperalgesia entry was “effective; also recorded: markedly attenuated”.
